Test results published in PubChem BioAssay (NCI).
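Five concentrations, 48 hours, 96-well plates. TGI: concentration producing complete growth inhibition.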

tested on: SF-268 CNS; assay: inhibition of tumour cell growth, NCI panel, 48 h

Structure (SMILES) | TGI [µM]
O=C1OC([C@H](O)c2cccnc2)c2ccccc21 (some centres not stated) | > 10
CO/C(=N\N=C\c1ccc(Cl)c(Cl)c1)c1ccncc1 | > 10
COC(=O)/C=C(\C)CCC1SC1(C)C (configuration not stated) | > 100
C=C1C2=C(CCCC2)C(=O)OC12CCCCC2 | > 100
COC(=O)C(=O)C(C(=O)C(=O)Nc1ccc(C)cc1C)c1nc2ccc(Cl)cc2[nH]c1=O (configuration not stated) | > 100
Cc1ccc(S(=O)(=O)N/N=C2/CCC3(O)CC2(C)CCC2[C@H]3CC2(C)C)cc1 (some centres not stated) | > 100
Cc1ccc(C(=O)Oc2ccccc2)cc1N=NN(C)C | > 100
CC1=CCC(C(C)(C)NC(=O)c2ccccc2)C/C1=N/O (configuration not stated) | > 100
O=[N+]([O-])c1cccc2nccc(NCCN3CCOCC3)c12 | > 66.7
CCCCCCCCCCCCOCC1(COCCCCCCCCCCCC)COC(c2ccc(N)cc2)OC1 | > 100
CCSC1=N/C(=C\c2ccco2)C(=O)N1 | > 100
CCOC(=O)CCC(NC(=O)c1ccc(NC(OC)c2nc3cc(C(F)(F)F)ccc3nc2-c2ccccc2)cc1)C(=O)OCC (configuration not stated) | 30.9
CCCCOC/N=C(/N)NC#N | > 100
COc1ccc2[nH]c3c(c2c1)[C@H]1CCC(C(C)(C)C)C[C@H]1[C@H]1C(=O)N(c2ccccc2)C(=O)[C@@H]31 (some centres not stated) | > 48.2
NC(=O)[N+](=CC(=S)Nc1ccccc1Cl)C(N)=O | > 100

tested on: SF-295 CNS; assay: inhibition of tumour cell growth, NCI panel, 48 h

Structure (SMILES) | TGI [µM]
C=C1C(=O)O[C@H]2C1C[C@H](O)[C@@]1(C)OC1CC[C@@]1(C)O[C@H]21 (some centres not stated) | > 100
CCOC(=O)C1=C(OC(OCC)C(CC)[Se]c2ccccc2)CCC1 (configuration not stated) | 65.5
Cc1ccc(-c2cc(-c3ccccc3)c(C#N)c(=O)[nH]2)cc1 | > 100
O=[N+]([O-])c1ccc(-c2nn3c(C45CC6CC(CC(C6)C4)C5)nnc3s2)c(Cl)c1 | > 100
O=[N+]([O-])c1cccc(Nc2nc(Cl)nc(Cl)n2)c1 | > 100
O=C1Oc2ccccc2C(=O)/C1=C/N1C(=O)CNC1=S | > 100
COc1ccc(-c2nc(-c3cnccn3)n(C3OC(CO)C(O)C3O)n2)cc1 (configuration not stated) | > 10
CCCc1nc2c(n1CC)C(=O)c1ccccc1C2=O | > 100
C1CCCN(NC2=NCCO2)CC1 | > 100
O=C1NCN(c2ccccc2)C12CCN(CC1COc3ccccc3O1)CC2 (configuration not stated) | > 100
O=C1OC([C@H](O)c2cccnc2)c2ccccc21 (some centres not stated) | > 10
CO/C(=N\N=C\c1ccc(Cl)c(Cl)c1)c1ccncc1 | > 10
COC(=O)/C=C(\C)CCC1SC1(C)C (configuration not stated) | > 100
C=C1C2=C(CCCC2)C(=O)OC12CCCCC2 | > 100
COC(=O)C(=O)C(C(=O)C(=O)Nc1ccc(C)cc1C)c1nc2ccc(Cl)cc2[nH]c1=O (configuration not stated) | > 100
Cc1ccc(S(=O)(=O)N/N=C2/CCC3(O)CC2(C)CCC2[C@H]3CC2(C)C)cc1 (some centres not stated) | 93
Cc1ccc(C(=O)Oc2ccccc2)cc1N=NN(C)C | > 100
CC1=CCC(C(C)(C)NC(=O)c2ccccc2)C/C1=N/O (configuration not stated) | > 100
O=[N+]([O-])c1cccc2nccc(NCCN3CCOCC3)c12 | 25.6
CCCCCCCCCCCCOCC1(COCCCCCCCCCCCC)COC(c2ccc(N)cc2)OC1 | > 100
CCSC1=N/C(=C\c2ccco2)C(=O)N1 | > 100
CCOC(=O)CCC(NC(=O)c1ccc(NC(OC)c2nc3cc(C(F)(F)F)ccc3nc2-c2ccccc2)cc1)C(=O)OCC (configuration not stated) | 31.2
CCCCOC/N=C(/N)NC#N | > 100
COc1ccc2[nH]c3c(c2c1)[C@H]1CCC(C(C)(C)C)C[C@H]1[C@H]1C(=O)N(c2ccccc2)C(=O)[C@@H]31 (some centres not stated) | > 42.5
NC(=O)[N+](=CC(=S)Nc1ccccc1Cl)C(N)=O | > 100

tested on: SF-539 CNS; assay: inhibition of tumour cell growth, NCI panel, 48 h

Structure (SMILES) | TGI [µM]
CCOC(=O)C1=C(OC(OCC)C(CC)[Se]c2ccccc2)CCC1 (configuration not stated) | 37.4
CCCc1cc(OC(=O)c2c(O)cc(OC)cc2CCC)cc(O)c1C(=O)O | 34.7
Cc1ccc(-c2cc(-c3ccccc3)c(C#N)c(=O)[nH]2)cc1 | > 100
O=[N+]([O-])c1ccc(-c2nn3c(C45CC6CC(CC(C6)C4)C5)nnc3s2)c(Cl)c1 | > 100
O=[N+]([O-])c1cccc(Nc2nc(Cl)nc(Cl)n2)c1 | > 100
O=C1Oc2ccccc2C(=O)/C1=C/N1C(=O)CNC1=S | > 100
CCOC(=O)C(=CNc1ccc(F)c(F)c1)C(=O)OCC | > 100
COc1ccc(-c2nc(-c3cnccn3)n(C3OC(CO)C(O)C3O)n2)cc1 (configuration not stated) | > 10
CCCc1nc2c(n1CC)C(=O)c1ccccc1C2=O | > 100
C1CCCN(NC2=NCCO2)CC1 | > 100
O=C1NCN(c2ccccc2)C12CCN(CC1COc3ccccc3O1)CC2 (configuration not stated) | > 100
O=C1OC([C@H](O)c2cccnc2)c2ccccc21 (some centres not stated) | > 10
CO/C(=N\N=C\c1ccc(Cl)c(Cl)c1)c1ccncc1 | > 10
COC(=O)/C=C(\C)CCC1SC1(C)C (configuration not stated) | > 100
C=C1C2=C(CCCC2)C(=O)OC12CCCCC2 | > 100
COC(=O)C(=O)C(C(=O)C(=O)Nc1ccc(C)cc1C)c1nc2ccc(Cl)cc2[nH]c1=O (configuration not stated) | > 100
Cc1ccc(C(=O)Oc2ccccc2)cc1N=NN(C)C | > 100
CC1=CCC(C(C)(C)NC(=O)c2ccccc2)C/C1=N/O (configuration not stated) | > 100
O=[N+]([O-])c1cccc2nccc(NCCN3CCOCC3)c12 | 57.2
CCCCCCCCCCCCOCC1(COCCCCCCCCCCCC)COC(c2ccc(N)cc2)OC1 | > 100
CCOC(=O)CCC(NC(=O)c1ccc(NC(OC)c2nc3cc(C(F)(F)F)ccc3nc2-c2ccccc2)cc1)C(=O)OCC (configuration not stated) | 26.1
CCCCOC/N=C(/N)NC#N | > 100
COc1ccc2[nH]c3c(c2c1)[C@H]1CCC(C(C)(C)C)C[C@H]1[C@H]1C(=O)N(c2ccccc2)C(=O)[C@@H]31 (some centres not stated) | 18.1
NC(=O)[N+](=CC(=S)Nc1ccccc1Cl)C(N)=O | > 100

tested on: SK-MEL-2 melanoma; assay: inhibition of tumour cell growth, NCI panel, 48 h

Structure (SMILES) | TGI [µM]
C=C1C(=O)O[C@H]2C1C[C@H](O)[C@@]1(C)OC1CC[C@@]1(C)O[C@H]21 (some centres not stated) | 55.3
CCOC(=O)C1=C(OC(OCC)C(CC)[Se]c2ccccc2)CCC1 (configuration not stated) | > 100
CCCc1cc(OC(=O)c2c(O)cc(OC)cc2CCC)cc(O)c1C(=O)O | 47.4
O=[N+]([O-])c1ccc(-c2nn3c(C45CC6CC(CC(C6)C4)C5)nnc3s2)c(Cl)c1 | > 100
O=[N+]([O-])c1cccc(Nc2nc(Cl)nc(Cl)n2)c1 | > 100
O=C1Oc2ccccc2C(=O)/C1=C/N1C(=O)CNC1=S | > 100
CCOC(=O)C(=CNc1ccc(F)c(F)c1)C(=O)OCC | > 100
COc1ccc(-c2nc(-c3cnccn3)n(C3OC(CO)C(O)C3O)n2)cc1 (configuration not stated) | > 10
C1CCCN(NC2=NCCO2)CC1 | > 100
O=C1NCN(c2ccccc2)C12CCN(CC1COc3ccccc3O1)CC2 (configuration not stated) | > 100
O=C1OC([C@H](O)c2cccnc2)c2ccccc21 (some centres not stated) | > 10
CO/C(=N\N=C\c1ccc(Cl)c(Cl)c1)c1ccncc1 | > 10
COC(=O)/C=C(\C)CCC1SC1(C)C (configuration not stated) | > 100
C=C1C2=C(CCCC2)C(=O)OC12CCCCC2 | > 100
COC(=O)C(=O)C(C(=O)C(=O)Nc1ccc(C)cc1C)c1nc2ccc(Cl)cc2[nH]c1=O (configuration not stated) | > 100
Cc1ccc(S(=O)(=O)N/N=C2/CCC3(O)CC2(C)CCC2[C@H]3CC2(C)C)cc1 (some centres not stated) | 69.2
Cc1ccc(C(=O)Oc2ccccc2)cc1N=NN(C)C | > 100
O=[N+]([O-])c1cccc2nccc(NCCN3CCOCC3)c12 | 42.6
CCCCCCCCCCCCOCC1(COCCCCCCCCCCCC)COC(c2ccc(N)cc2)OC1 | > 100
CCSC1=N/C(=C\c2ccco2)C(=O)N1 | > 100
CCOC(=O)CCC(NC(=O)c1ccc(NC(OC)c2nc3cc(C(F)(F)F)ccc3nc2-c2ccccc2)cc1)C(=O)OCC (configuration not stated) | 33.1
CCCCOC/N=C(/N)NC#N | > 100
COc1ccc2[nH]c3c(c2c1)[C@H]1CCC(C(C)(C)C)C[C@H]1[C@H]1C(=O)N(c2ccccc2)C(=O)[C@@H]31 (some centres not stated) | 58
NC(=O)[N+](=CC(=S)Nc1ccccc1Cl)C(N)=O | > 100

tested on: SK-MEL-5 melanoma; assay: inhibition of tumour cell growth, NCI panel, 48 h

Structure (SMILES) | TGI [µM]
C=C1C(=O)O[C@H]2C1C[C@H](O)[C@@]1(C)OC1CC[C@@]1(C)O[C@H]21 (some centres not stated) | 35.4
CCOC(=O)C1=C(OC(OCC)C(CC)[Se]c2ccccc2)CCC1 (configuration not stated) | 31.2
Cc1ccc(-c2cc(-c3ccccc3)c(C#N)c(=O)[nH]2)cc1 | > 100
O=[N+]([O-])c1ccc(-c2nn3c(C45CC6CC(CC(C6)C4)C5)nnc3s2)c(Cl)c1 | > 100
O=[N+]([O-])c1cccc(Nc2nc(Cl)nc(Cl)n2)c1 | > 100
O=C1Oc2ccccc2C(=O)/C1=C/N1C(=O)CNC1=S | > 100
CCOC(=O)C(=CNc1ccc(F)c(F)c1)C(=O)OCC | > 100
CCCc1nc2c(n1CC)C(=O)c1ccccc1C2=O | 88.7
C1CCCN(NC2=NCCO2)CC1 | > 100
O=C1NCN(c2ccccc2)C12CCN(CC1COc3ccccc3O1)CC2 (configuration not stated) | > 100
O=C1OC([C@H](O)c2cccnc2)c2ccccc21 (some centres not stated) | > 10
CO/C(=N\N=C\c1ccc(Cl)c(Cl)c1)c1ccncc1 | > 10
COC(=O)/C=C(\C)CCC1SC1(C)C (configuration not stated) | > 100
C=C1C2=C(CCCC2)C(=O)OC12CCCCC2 | > 100
COC(=O)C(=O)C(C(=O)C(=O)Nc1ccc(C)cc1C)c1nc2ccc(Cl)cc2[nH]c1=O (configuration not stated) | > 100
Cc1ccc(S(=O)(=O)N/N=C2/CCC3(O)CC2(C)CCC2[C@H]3CC2(C)C)cc1 (some centres not stated) | 33.1
Cc1ccc(C(=O)Oc2ccccc2)cc1N=NN(C)C | > 100
CC1=CCC(C(C)(C)NC(=O)c2ccccc2)C/C1=N/O (configuration not stated) | > 100
O=[N+]([O-])c1cccc2nccc(NCCN3CCOCC3)c12 | 22.3
CCCCCCCCCCCCOCC1(COCCCCCCCCCCCC)COC(c2ccc(N)cc2)OC1 | > 100
CCSC1=N/C(=C\c2ccco2)C(=O)N1 | > 100
CCOC(=O)CCC(NC(=O)c1ccc(NC(OC)c2nc3cc(C(F)(F)F)ccc3nc2-c2ccccc2)cc1)C(=O)OCC (configuration not stated) | 30
CCCCOC/N=C(/N)NC#N | > 100
COc1ccc2[nH]c3c(c2c1)[C@H]1CCC(C(C)(C)C)C[C@H]1[C@H]1C(=O)N(c2ccccc2)C(=O)[C@@H]31 (some centres not stated) | > 100
NC(=O)[N+](=CC(=S)Nc1ccccc1Cl)C(N)=O | > 100

tested on: SNB-75 CNS; assay: inhibition of tumour cell growth, NCI panel, 48 h

Structure (SMILES) | TGI [µM]
C=C1C(=O)O[C@H]2C1C[C@H](O)[C@@]1(C)OC1CC[C@@]1(C)O[C@H]21 (some centres not stated) | > 100
CCOC(=O)C1=C(OC(OCC)C(CC)[Se]c2ccccc2)CCC1 (configuration not stated) | 69.8
CCCc1cc(OC(=O)c2c(O)cc(OC)cc2CCC)cc(O)c1C(=O)O | 73.4
Cc1ccc(-c2cc(-c3ccccc3)c(C#N)c(=O)[nH]2)cc1 | > 100
